{"source": "ChEMBL document CHEMBL1212695", "about": "“An allosteric potentiator of M4 mAChR modulates hippocampal synaptic transmission” (Nat Chem Biol, 2008)", "key": {"[1]": {"assay": "Agonist activity at muscarinic receptor in M4 receptor knock out mouse hippocampal CA1 pyramidal neuron assessed as reduction of excitatory postsynaptic current amplitude at 2 uM by whole-cell electrophysiology relative to control", "type": "functional", "details": "Hippocampus"}, "[2]": {"biological_target": "T1, Muscarinic acetylcholine receptor M4 (Rattus norvegicus) (UniProt P08485)", "T1 sequence (whole entry)": "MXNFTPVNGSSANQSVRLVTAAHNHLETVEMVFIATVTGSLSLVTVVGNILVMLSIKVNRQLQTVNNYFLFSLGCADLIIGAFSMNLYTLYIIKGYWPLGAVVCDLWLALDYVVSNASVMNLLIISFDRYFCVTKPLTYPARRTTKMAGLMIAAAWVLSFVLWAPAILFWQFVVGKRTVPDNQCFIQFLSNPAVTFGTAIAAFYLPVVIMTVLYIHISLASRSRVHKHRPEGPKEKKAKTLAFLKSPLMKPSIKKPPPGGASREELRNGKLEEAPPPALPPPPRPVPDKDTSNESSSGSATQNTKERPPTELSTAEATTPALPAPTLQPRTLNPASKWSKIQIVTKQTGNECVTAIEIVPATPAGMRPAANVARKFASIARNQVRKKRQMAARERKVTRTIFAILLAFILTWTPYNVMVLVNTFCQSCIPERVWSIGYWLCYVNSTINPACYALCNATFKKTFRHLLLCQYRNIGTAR", "assay": "Agonist activity at muscarinic M4 receptor in Sprague-Dawley rat hippocampal CA1 pyramidal neuron assessed as reduction of inhibitory postsynaptic current at 5 uM by whole-cell electrophysiology in presence of carbachol relative to control", "type": "functional, tissue-based", "details": "Hippocampus"}, "[3]": {"biological_target": "T2, Muscarinic acetylcholine receptor M2 (Rattus norvegicus) (UniProt P10980)", "T2 sequence (whole entry)": "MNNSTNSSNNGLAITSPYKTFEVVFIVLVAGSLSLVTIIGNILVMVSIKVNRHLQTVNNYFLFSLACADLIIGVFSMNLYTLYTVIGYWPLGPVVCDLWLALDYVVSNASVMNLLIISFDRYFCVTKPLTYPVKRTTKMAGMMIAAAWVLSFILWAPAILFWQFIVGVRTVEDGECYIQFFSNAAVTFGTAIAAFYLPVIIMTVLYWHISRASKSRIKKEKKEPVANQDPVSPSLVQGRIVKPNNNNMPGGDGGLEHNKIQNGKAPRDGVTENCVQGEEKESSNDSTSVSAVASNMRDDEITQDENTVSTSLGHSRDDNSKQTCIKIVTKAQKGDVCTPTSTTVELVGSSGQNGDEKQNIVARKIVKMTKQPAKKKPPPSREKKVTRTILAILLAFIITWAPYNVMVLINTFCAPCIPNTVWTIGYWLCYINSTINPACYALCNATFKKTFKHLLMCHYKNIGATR", "assay": "Allosteric activation of rat recombinant muscarinic M2 receptor expressed in CHO cells assessed as potentiation of acetylcholine-induced calcium mobilization at 10 uM after 1 hr by fluorescence assay", "type": "functional, cell-based"}, "[4]": {"biological_target": "T3, Muscarinic acetylcholine receptor M5 (Rattus norvegicus) (UniProt P08911)", "T3 sequence (whole entry)": "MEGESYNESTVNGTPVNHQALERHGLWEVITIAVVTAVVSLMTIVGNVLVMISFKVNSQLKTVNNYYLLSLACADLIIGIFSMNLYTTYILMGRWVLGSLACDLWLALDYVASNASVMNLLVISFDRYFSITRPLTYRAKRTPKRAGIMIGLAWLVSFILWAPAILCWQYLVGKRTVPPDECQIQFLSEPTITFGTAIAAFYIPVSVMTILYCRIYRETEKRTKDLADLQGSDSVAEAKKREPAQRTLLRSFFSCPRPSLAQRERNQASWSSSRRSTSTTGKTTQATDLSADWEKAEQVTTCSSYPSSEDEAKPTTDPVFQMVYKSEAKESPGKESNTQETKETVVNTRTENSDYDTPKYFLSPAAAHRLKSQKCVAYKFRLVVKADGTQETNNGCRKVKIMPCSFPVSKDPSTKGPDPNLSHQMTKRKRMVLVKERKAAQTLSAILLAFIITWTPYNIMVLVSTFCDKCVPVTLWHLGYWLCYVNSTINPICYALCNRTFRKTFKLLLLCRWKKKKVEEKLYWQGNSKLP", "assay": "Allosteric activation of rat recombinant muscarinic M5 receptor expressed in CHO cells assessed as potentiation of acetylcholine-induced calcium mobilization at 10 uM after 1 hr by fluorescence assay", "type": "functional, cell-based"}, "CHO": {"tested_on": "CHO", "assay": "Antagonist activity at P2Y1 receptor in CHO cells assessed as calcium mobilization at 10 uM after 1 hr by fluorescence assay", "type": "functional, cell-based", "details": "Cricetulus griseus"}, "[5]": {"biological_target": "T1, Muscarinic acetylcholine receptor M4 (Rattus norvegicus)", "assay": "Displacement of [3H]NMS from rat recombinant muscarinic M4 receptor expressed in CHO cells up to 30 uM after 2 hrs by microplate scintillation counting", "type": "cell-based"}, "[6]": {"biological_target": "Muscarinic acetylcholine receptor M3 (Rattus norvegicus) (UniProt P08483)", "sequence (P08483 whole entry, looked up)": "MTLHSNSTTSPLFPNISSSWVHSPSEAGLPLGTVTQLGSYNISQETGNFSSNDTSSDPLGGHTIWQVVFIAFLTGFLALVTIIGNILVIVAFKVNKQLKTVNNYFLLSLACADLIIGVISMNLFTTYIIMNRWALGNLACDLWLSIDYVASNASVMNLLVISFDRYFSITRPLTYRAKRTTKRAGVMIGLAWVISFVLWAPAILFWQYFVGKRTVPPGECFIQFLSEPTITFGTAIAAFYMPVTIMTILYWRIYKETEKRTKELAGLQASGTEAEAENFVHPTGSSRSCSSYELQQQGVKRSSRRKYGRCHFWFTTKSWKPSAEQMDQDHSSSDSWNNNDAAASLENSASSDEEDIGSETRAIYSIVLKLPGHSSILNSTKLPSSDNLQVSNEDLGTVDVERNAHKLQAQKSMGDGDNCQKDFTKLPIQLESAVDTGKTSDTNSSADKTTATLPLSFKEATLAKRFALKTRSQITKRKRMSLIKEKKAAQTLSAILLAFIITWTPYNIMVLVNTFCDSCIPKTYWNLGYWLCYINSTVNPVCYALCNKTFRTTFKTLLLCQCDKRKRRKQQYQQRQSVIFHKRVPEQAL", "assay": "Displacement of [3H]NMS from rat recombinant muscarinic M3 receptor expressed in CHO cells after 2 hrs by microplate scintillation counting", "type": "cell-based"}, "[7]": {"biological_target": "T1, Muscarinic acetylcholine receptor M4 (Rattus norvegicus)", "assay": "Allosteric activation of rat recombinant muscarinic M4 receptor expressed in CHO cells assessed as fold decrease in acetylcholine Ki for displacement of [3H]NMS from active binding site at 10 uM after 2 hrs by microplate scintillation counting", "type": "cell-based"}, "[8]": {"biological_target": "T1, Muscarinic acetylcholine receptor M4 (Rattus norvegicus)", "assay": "Allosteric activation of rat recombinant muscarinic M4 receptor expressed in CHO cells assessed as potentiation of acetylcholine-induced increase in [35S]GTPgammaS binding at 10 um after 1 hr by equilibrium binding assay", "type": "functional, cell-based"}, "[9]": {"biological_target": "T1, Muscarinic acetylcholine receptor M4 (Rattus norvegicus)", "assay": "Agonist activity at muscarinic M4 receptor in Sprague-Dawley rat hippocampal CA1 pyramidal neuron assessed as excitatory postsynaptic current amplitude at 5 uM by whole-cell electrophysiology relative to control", "type": "functional, tissue-based", "details": "Hippocampus"}, "[10]": {"biological_target": "T1, Muscarinic acetylcholine receptor M4 (Rattus norvegicus)", "assay": "Agonist activity at muscarinic M4 receptor in Sprague-Dawley rat hippocampal CA1 pyramidal neuron assessed as increase in carbachol-induced reduction in excitatory postsynaptic current at 5 uM by whole-cell electrophysiology relative to control", "type": "functional, tissue-based", "parameters": "scale not given: the % may be the effect or the level left", "details": "Hippocampus"}, "[11]": {"biological_target": "T4, Muscarinic acetylcholine receptor M4 (Mus musculus) (UniProt P32211)", "T4 sequence (whole entry)": "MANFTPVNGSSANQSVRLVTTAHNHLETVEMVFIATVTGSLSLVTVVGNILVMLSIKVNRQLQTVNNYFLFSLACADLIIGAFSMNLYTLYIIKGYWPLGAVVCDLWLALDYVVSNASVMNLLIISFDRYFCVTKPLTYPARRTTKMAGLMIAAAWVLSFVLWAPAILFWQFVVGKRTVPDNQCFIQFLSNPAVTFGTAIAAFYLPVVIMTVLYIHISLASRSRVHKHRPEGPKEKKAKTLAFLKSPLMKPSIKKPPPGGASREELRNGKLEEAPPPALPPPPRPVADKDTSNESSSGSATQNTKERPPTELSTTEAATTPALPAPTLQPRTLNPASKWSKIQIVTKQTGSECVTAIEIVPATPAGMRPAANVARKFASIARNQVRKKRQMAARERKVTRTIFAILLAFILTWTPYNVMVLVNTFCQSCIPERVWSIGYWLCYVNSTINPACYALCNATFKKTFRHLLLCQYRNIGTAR", "assay": "Agonist activity at muscarinic M4 receptor in wild type mouse hippocampal CA1 pyramidal neuron assessed as reduction of excitatory postsynaptic current at 100 uM by whole-cell electrophysiology relative to control", "type": "functional, tissue-based", "details": "Hippocampus"}, "[12]": {"assay": "Agonist activity at muscarinic receptor in M4 receptor knock out mouse hippocampal CA1 pyramidal neuron assessed as reduction of excitatory postsynaptic current amplitude at 100 uM by whole-cell electrophysiology relative to control", "type": "functional", "details": "Hippocampus"}}, "note": "Calls of active or inactive are those of the source. The rule behind the calls is not given here."}
{"smiles": "Cc1cc(C)c2c(N)c(C(=O)NCc3ccc(Cl)cc3)sc2n1", "values": [{"measurement": "inhibition at 2 µM", "setting": "[1]", "result": 70.8, "unit": "%"}, {"measurement": "inhibition", "setting": "[2]", "result": 61.7, "unit": "%"}, {"measurement": "Activity", "setting": "[3]", "result": "inactive"}, {"measurement": "Activity", "setting": "[4]", "result": "inactive"}, {"measurement": "Activity", "setting": "CHO", "result": "inactive"}, {"measurement": "Activity", "setting": "[5]", "result": "inactive"}, {"measurement": "Activity", "setting": "[6]", "result": "inactive"}, {"measurement": "fold change (FC)", "setting": "[7]", "result": 14}, {"measurement": "Activity", "setting": "[8]", "result": 43, "unit": "%"}, {"measurement": "Activity", "setting": "[9]", "result": 108, "unit": "%"}, {"measurement": "Activity", "setting": "[10]", "result": 36.9, "unit": "%"}, {"measurement": "inhibition", "setting": "[11]", "result": 18, "unit": "%"}, {"measurement": "inhibition at 100 µM", "setting": "[12]", "result": 21.1, "unit": "%"}]}
